Assays:
[1] = test system: Histamine-induced anaphylactoid reactions; assay: Inhibition of anaphylactoid cutaneous reaction induced by histamine; assay type: in vivo, rat (Sprague-Dawley); settings: Rattus norvegicus, 1 h; rats, 2 × 10^-5 mol/kg p.o., one hour before challenge; histamine intradermal
Summary of the method: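 Animals received 50 μl intradermal histamine (0.8 mg/ml in saline) in the flank opposite the antiserum site, just before i.v. ovalbumin plus blue dye. Test substance at 2×10^-5 mol/kg was given orally 1 h before challenge in water with 1% DMF and 1% Tween 20. Blue-dye exudation was scored visually at 30 min, giving % inhibition versus solvent controls.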

[2] = test system: P.A.F.-induced aggregation of platelets from rabbit blood; assay: Anti-P.A.F. effect in vitro: inhibition of P.A.F.-induced platelet aggregation; assay type: cell-based, rabbit (New Zealand hybrids); settings: Oryctolagus cuniculus, Platelet, test substance concentration 10^-5 mol/l
Summary of the method: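 Washed, aspirin-treated rabbit platelets (4×10^9/ml stock suspension) in modified Tyrode buffer, pH 7.4, preincubated 90 s with test compound at 10^-5 mol/l final, then challenged with P.A.F. Aggregation followed 4–5 min in an aggregometer. Inhibition expressed in % relative to P.A.F.-only (100%) and platelet-only (0%) controls.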

SMILES | inhibition in vivo at 20 µmol/kg [1] | inhibition at 10 µM [2]
CCCCC1CCc2cccc3c(CCN4CCN(c5cc(C)ccn5)CC4)c(C)n1c23 (stereo not drawn) [Example 73, 4-n-butyl-5,6-dihydro-2-methyl-1-{2-[4-(4-methylpyridin-2-yl)piperazin-1-yl]ethyl}-4H-pyrrolo[3,2,1-ij]quinoline] | 95% | 99%
Cc1ccnc(N2CCN(CCc3c(C)n4c5c(cccc35)CCC4c3ccc(O)cc3)CC2)c1 (stereo not drawn) [Example 61] | 100% | 83%
Cc1ccc(N2CCN(CCc3c(C)n4c5c(cccc35)CCC4)CC2)nc1 [Example 42] | 45% | –
COc1ccc(-c2c(CCN3CCN(c4cc(C)ccn4)CC3)c3cccc4c3n2CCC4)cc1 [Example 7, 2-(4-methoxy-phenyl)-1-{2-[4-(4-methylpyridin-2-yl)piperazin-1-yl]ethyl}-5,6-dihydro-4H-pyrrolo[3,2,1-ij]quinoline] | 35% | 100%
CCCCC1CCc2cc(O)cc3c(CCN4CCN(c5cc(C)ccn5)CC4)c(C)n1c23 (stereo not drawn) [Example 76] | 100% | 99%
Cc1ccnc(N2CCN(CCc3c(C)n4c5c(cc(C(=O)C(C)C)cc35)CCC4)CC2)c1 [Example 27, 5,6-dihydro-2-methyl-8-(2-methyl-1-oxopropyl)-1-{2-[4-(4-methylpyridin-2-yl)piperazin-1-yl]ethyl}-4H-pyrrolo-[3,2,1-ij]quinoline] | 95% | 83%
CNc1cc2c3c(c1)c(CCN1CCN(c4cc(C)ccn4)CC1)c(C)n3CCC2 [Example 80] | – | 72%
CCCCC1CCc2cc(OC)cc3c(CCN4CCN(c5cc(C)ccn5)CC4)c(C)n1c23 (stereo not drawn) [Example 63] | 95% | 98%
Cc1ccnc(N2CCN(CCc3c(-c4ccc(F)cc4)n4c5c(cccc35)CCC4)CC2)c1 [Example 47] | 20% | 95%
Cc1ccnc(N2CCN(CCc3c(C)n4c5c(cc([N+](=O)[O-])cc35)CCC4)CC2)c1 [Example 10, 2-Methyl-8-nitro-1-{2-[4-(4-methylpyridin-2-yl)-piperazin-1-yl]ethyl}-5,6-dihydro-4H-pyrrolo[3,2,1-ij]quinoline] | 75% | 94%
COc1ccc(C2CCc3cc(OC)cc4c(CCN5CCN(c6cc(C)ccn6)CC5)c(C)n2c34)cc1 (stereo not drawn) [Example 65] | 95% | 100%
Cc1ccnc(N2CCN(CCc3c(C)n4c5c(cc(Cc6ccccc6)cc35)CCC4)CC2)c1 [Example 77] | 30% | 100%
Cc1c(CCN2CCN(c3ccccn3)CC2)c2cccc3c2n1CCC3 [Example 37] | 58% | 28%
COc1ccc(C2CCc3cccc4c(CCN5CCN(c6cc(C)ccn6)CC5)c(C)n2c34)cc1 (stereo not drawn) [Example 59] | 95% | 89%
Cc1ccnc(N2CCN(CCc3c(C)n4c5c(c(C(O)C(C)C)ccc35)SCC4)CC2)c1 (stereo not drawn) [Example 89] | – | 100%
Cc1ccnc(N2CCN(CC(O)c3c(C4CCCCC4)n4c5c(cccc35)CCC4)CC2)c1 (stereo not drawn) [Example 85] | – | 100%
Cc1ccnc(N2CCN(CCc3c(C)n4c5c(c(Cl)cc(Cl)c35)OCC4)CC2)c1 [Example 79] | – | 71%
Cc1ccnc(N2CCN(CCc3c(C)n4c5c(cc(C(=O)C6CCCCC6)cc35)CCC4)CC2)c1 [Example 83] | – | 100%
Cc1ccnc(N2CCN(CCc3c(C)n4c5c(cccc35)CCC4C3CCCCC3)CC2)c1 (stereo not drawn) [Example 87] | – | 100%
Cc1ccnc(N2CCN(CCc3c(C)n4c5c(cc(N(C)C)cc35)CCC4)CC2)c1 [Example 81] | 82% | –
Cc1ccnc(N2CCN(CCc3c(-c4ccc(O)cc4)n4c5c(cccc35)CCC4)CC2)c1 [Example 8, 2-(4-hydroxyphenyl)-1-{2-[4-(4-methylpyridin-2-yl)piperazin-1-yl]ethyl}-5,6-dihydro-4H-pyrrolo[3,2,1-ij]quinoline] | – | 100%
